Patent US20020058049A1, “Stable ophthalmic preparation” (priority 2000, published 2002)

What was measured:
[1] = Percent unoprostone isopropyl absorbed by bottle (PP vs LDPE) at three storage temperatures; format: physicochemical
Experimental: (§1) 0.15 wt % unoprostone isopropyl ester (a typical prostaglandin analogue) solution in an isotonic solution containing mannitol and edetate disodium is prepared. The solution also contains 0.015 wt % benzalkonium chloride as a preservative. The solution is placed in a polypropylene bottle and a polyethylene bottle, which bottles have 7.5 ml void volume, and 5 ml of the solution is placed in each bottle. The bottles have air-tight caps. The polypropylene bottle is molded from REXENE PP23M2 polypropylene and the polyethylene bottle is produced from ALATHON 2025 […] polyethylene (LDPE), which is available from DuPont. The bottles are placed in controlled environment at 40° C. and ambient humidity, and the concentration of unoprostone is periodically measured using HPLC.
Example 1 is repeated except that three different temperatures are used to store the samples. As put forth in Table 3, the percent unoprostone isopropyl absorbed by polypropylene is much lower than LDPE. This is particularly significant in that the lower absorption at higher temperatures enables the preparation of the present invention to meet current FDA stability requirements without refrigeration.

[2] = Long-term stability of unoprostone in polypropylene bottles at 25° C., 40% relative humidity; format: physicochemical; conditions: PP bottle
Experimental: as §1
The unoprostone solution is placed in the polypropylene bottles, as described in Example 1, and placed in storage at 25° C. with 40% relative humidity. The stability over time of unoprostone in the polypropylene bottles is measured.

CCCCCCCC(=O)CC[C@@H]1[C@@H](C/C=C\CCCC(=O)OC(C)C)[C@@H](O)C[C@H]1O [Unoprostone, unoprostone isopropyl ester]
% Unoprostone Absorbed ([1]; LDPE bottle, 12 mo. at 5° C.): 3.11% | % Unoprostone Absorbed ([1]; LDPE bottle, 12 mo. at 25° C.): 4.76% | % Unoprostone Absorbed ([1]; LDPE bottle, 12 mo. at 30° C.): 5.70% | % Unoprostone Absorbed ([1]; PP bottle, 12 mo. at 5° C.): 0.00% | % Unoprostone Absorbed ([1]; PP bottle, 12 mo. at 25° C.): 0.98% | % Unoprostone Absorbed ([1]; PP bottle, 12 mo. at 30° C.): 1.98% | % Unoprostone Isopropyl (Active) ([2]; 3 mo.): 101.3% | % Unoprostone Isopropyl (Active) ([2]; 6 mo.): 101.3% | % Unoprostone Isopropyl (Active) ([2]; 9 mo.): 101.3% | % Unoprostone Isopropyl (Active) ([2]; 18 mo.): 101.3% | % Unoprostone Isopropyl (Active) ([2]; Initial): 101.3% | degradation in concentration over time ([2]; over eighteen months): no measurable degradation
